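96-well plates; 48 h exposure; 5 concentrations. Endpoints by linear interpolation between flanking doses. Not reached: highest tested concentration assigned. GI50 marks 50% less growth.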 The source made the active and inactive calls. Rule as the data show it: active = GI50 up to about 1.1 µM and inactive = higher.
Columns and labels:
Assay in all cases: NCI-60 cell line screen, 48 h
OVCAR-8 = system: OVCAR-8
NCI-H226 = system: NCI-H226
A498 = system: A498
SF-295 = system: SF-295
MDA-N = system: MDA-N
K562 = system: K562
COLO 205 = system: COLO 205
HT-29 = system: HT-29
SR = system: SR
NCI/ADR-RES = system: NCI/ADR-RES
RPMI-8226 = system: RPMI-8226
LOX IMVI = system: LOX IMVI
MOLT-4 = system: MOLT-4
UACC-62 = system: UACC-62
NCI-H522 = system: NCI-H522
SNB-19 = system: SNB-19
NCI-H460 = system: NCI-H460
CCRF-CEM = system: CCRF-CEM
MCF7 = system: MCF7
UO-31 = system: UO-31

Measured: GI50

COc1ccccc1C1ON=C(c2ccc([N+](=O)[O-])cc2)N1C12CC3CC(CC(C3)C1)C2 (stereo not given)
inactive: OVCAR-8 > 100 µM | NCI-H226 > 100 µM | A498 > 100 µM | SF-295 80.2 µM | MDA-N > 100 µM | K562 36.7 µM | COLO 205 > 100 µM | HT-29 45.4 µM | SR 29.9 µM | NCI/ADR-RES > 100 µM | RPMI-8226 20.8 µM | LOX IMVI > 100 µM | MOLT-4 17.6 µM | UACC-62 > 100 µM | NCI-H522 73.8 µM | SNB-19 > 100 µM | NCI-H460 47.9 µM | CCRF-CEM 28.7 µM | MCF7 47.9 µM | UO-31 > 100 µM

CN(C)CCCNC(=O)c1cc(NS(=O)(=O)c2ccc3c(c2)C(=O)c2ccccc2C3=O)cn1C
inactive: OVCAR-8 40.3 µM | NCI-H226 22.9 µM | A498 23.2 µM | SF-295 31.3 µM | MDA-N 28.1 µM | K562 30 µM | COLO 205 23.6 µM | HT-29 28.8 µM | SR 21.9 µM | NCI/ADR-RES > 100 µM | RPMI-8226 14.8 µM | LOX IMVI 13.8 µM | MOLT-4 32.7 µM | UACC-62 20.8 µM | NCI-H522 22.6 µM | SNB-19 12.8 µM | NCI-H460 18.8 µM | CCRF-CEM 21.5 µM | MCF7 19.5 µM | UO-31 56.4 µM

Nc1nc(Cl)c(N)c(NCC2(CO)CCC2)n1
inactive: OVCAR-8 > 100 µM | NCI-H226 > 100 µM | A498 > 100 µM | SF-295 > 100 µM | MDA-N > 100 µM | K562 > 100 µM | COLO 205 > 100 µM | HT-29 > 100 µM | SR > 100 µM | NCI/ADR-RES > 100 µM | RPMI-8226 > 100 µM | LOX IMVI > 100 µM | MOLT-4 > 100 µM | UACC-62 > 100 µM | NCI-H522 69.7 µM | SNB-19 > 100 µM | NCI-H460 > 100 µM | CCRF-CEM > 100 µM | MCF7 > 100 µM | UO-31 > 100 µM

Cc1cc(OCc2nnc3n2N=C(c2cc(F)c(Cl)cc2Cl)/C(=C/c2ccc(-c4ccc(Cl)cc4)o2)S3)ccc1Cl
inactive: OVCAR-8 > 50 µM | NCI-H226 36.3 µM | A498 24.7 µM | SF-295 36.6 µM | MDA-N 21.5 µM | K562 26.9 µM | COLO 205 10.4 µM | HT-29 21.3 µM | SR 22.9 µM | NCI/ADR-RES 12.1 µM | RPMI-8226 14.1 µM | LOX IMVI 31.6 µM | MOLT-4 > 50 µM | UACC-62 18.2 µM | NCI-H522 28.8 µM | SNB-19 > 50 µM | NCI-H460 29.5 µM | CCRF-CEM > 50 µM | MCF7 20.5 µM | UO-31 48.5 µM

Cc1nc(O)nc2nc3ccc(Cl)cc3c(NCCNCCO)c12
inactive: OVCAR-8 9.46 µM | NCI-H226 13.1 µM | A498 20.3 µM | SF-295 16.3 µM | MDA-N 12.8 µM | K562 8.59 µM | COLO 205 8.99 µM | HT-29 10.3 µM | SR 8.07 µM | NCI/ADR-RES 19.4 µM | RPMI-8226 42.9 µM | LOX IMVI 8.83 µM | MOLT-4 7.53 µM | UACC-62 12 µM | NCI-H522 3.21 µM | SNB-19 9.06 µM | NCI-H460 12.5 µM | CCRF-CEM 9.27 µM | MCF7 13.6 µM | UO-31 8.65 µM

CCCCCCCCCCCCCCCCOc1ccc(/C=C/C2=[N+](CCCl)CCO2)cc1
inactive: OVCAR-8 42 µM | NCI-H226 > 100 µM | A498 73.1 µM | SF-295 55.8 µM | MDA-N > 100 µM | K562 77.3 µM | COLO 205 67.6 µM | HT-29 > 100 µM | SR 30.1 µM | NCI/ADR-RES 56.1 µM | RPMI-8226 > 100 µM | LOX IMVI > 100 µM | MOLT-4 > 100 µM | UACC-62 > 100 µM | NCI-H522 > 100 µM | SNB-19 > 100 µM | NCI-H460 90.4 µM | CCRF-CEM > 100 µM | MCF7 > 100 µM | UO-31 > 100 µM

From ChEMBL document CHEMBL1201862, “PubChem BioAssay data set” (2004)
